The source of these data is patent US6391917B1, “Dialkyl ureas as calcitonin mimetics” (ZymoGenetics, Inc., priority 1998, dated 2002).

What all share (assay type): cell-based
Test [1] deals with T1, Human calcitonin receptor (Homo sapiens, UniProt P30988).
T1 construct: expressed in transfected cells; host or cells: BHK-570 (Hollex-1)
T1 sequence (P30988 25-474): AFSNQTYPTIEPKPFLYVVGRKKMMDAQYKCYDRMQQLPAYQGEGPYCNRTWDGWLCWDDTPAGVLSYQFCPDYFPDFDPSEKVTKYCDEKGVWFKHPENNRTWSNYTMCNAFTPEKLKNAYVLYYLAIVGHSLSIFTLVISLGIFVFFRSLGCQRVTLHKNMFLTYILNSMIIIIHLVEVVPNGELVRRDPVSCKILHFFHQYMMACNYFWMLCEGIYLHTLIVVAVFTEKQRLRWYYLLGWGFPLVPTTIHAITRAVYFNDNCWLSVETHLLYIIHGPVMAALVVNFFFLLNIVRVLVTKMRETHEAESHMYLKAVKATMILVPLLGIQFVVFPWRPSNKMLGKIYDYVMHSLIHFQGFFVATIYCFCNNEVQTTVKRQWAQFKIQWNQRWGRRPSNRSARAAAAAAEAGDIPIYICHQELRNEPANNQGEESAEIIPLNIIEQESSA
The test is described as follows: CRE-luciferase assay for calcitonin mimetics (Hollex-1). As for the experimental part:
CRE-Luciferase Assay Method for Calcitonin Mimetics
Human calcitonin receptor-positive and receptor-negative BHK-570 (Baby Hamster Kidney) cell lines were maintained by serial passage in growth medium (DMEM supplemented with 10% heat-inactivated fetal calf serum (HI-FCS), 2 mM L-glutamine, 1 mM sodium pyruvate, 250 nM MTX, and 1 mg/mL G418). On the day prior to assay, cells were trypsinized, adjusted to 2.5×10^5 cells/ml in growth medium, plated in opaque white Dynatech Microlite microtiter tissue culture plates at 50 μL/well, and grown overnight to confluence (37° C., 5% CO2 atmosphere).
Test substances were prepared in DMSO or 10% DMF at 100 times the final desired assay concentration. […] Controls were included on each plate: untreated wells (basal), […], and 100 nM human calcitonin. DMSO or DMF was included in control wells at a concentration equal to that in test samples (not to exceed a final assay concentration of 2% DMSO or 0.5% DMF, with a preferred maximum of 1% DMSO or 0.1% DMF).
Plates were incubated for 3 to 8 hours (4 hours preferred) at 37° C. in an atmosphere of 5% CO2. Following induction, luciferase activity was measured using a Promega luciferase assay kit (E1500) according to the assay kit protocol (Promega Corp., Madison, Wis.). Briefly, assay medium was removed and cells were washed once with phosphate buffered saline (PBS). After the wash, 25 μl of lysis buffer was added to each well, and the plates were incubated for 15 minutes at room temperature. Fifty microliters of Luciferase Assay Substrate (Promega, Corp.) was added to each well and the plates were transferred to a Labsystems Lumiscan microtiter luminometer (Labsystems Inc., Morton Grove, Ill.). The amount of luminescence (relative light units, RLU) was determined following a 0.1 second/well integration of signal. Basal (uninduced) luciferase signal was subtracted from all measurements, and the luciferase signal induced by test samples was expressed as a percentage of the signal in the calcitonin and forskolin controls. Specificity of the luciferase induction for calcitonin receptor-positive cell lines was determined by comparing the percent control values in the calcitonin receptor-positive line (Hollex-1) to those observed in the calcitonin receptor-negative cell line (KZ10-20-48/Zem 228) and the PTH receptor-positive cell line (KZ10-20-48/PTH-20) described below. Samples inducing a signal over the basal level were selected for further characterization, see Table 1 for examples.

The test system of test [2] is PTH-induced bone resorption in mouse calvariae. The test is described as follows: Calvarial assay: PTH-induced bone resorption, calcium release. To be noted: 1 nM PTH 1-34, 72 hours. As for the experimental part:
Calvaria from 4-day old neonatal CD-1 mice (pregnant mice received from Charles River Laboratories, Wilmington, Mass.) were trimmed with fine-tipped scissors to leave the parietal regions, including the sagittal suture. These trimmed bones were placed singly per well into 6-well cell culture cluster plates (Costar, Pleasanton, Calif.) with 1 ml/well of Dulbecco's […] Essential Medium, […] (DMEM, BioWhittaker, Walkersville, Md.) or Basal Eagle's Medium with Earle's salts (EMEM, Gibco/BRL, Grand Island, N.Y.) and 0.29 mg/ml L-glutamine, 1 mM sodium pyruvate, 15% heat-inactivated horse serum, and antibiotics (penicillin-G 50 μg/ml, streptomycin 50 μg/ml, and neomycin 100 μg/ml). Calvaria were rocked gently (RedRocker™, model PR50-115 V, Hoefer, San Francisco, Calif. or Labline Rocking Shaker, model 4635, Labline Instruments, Melrose Park, Ill.) at 37° C. in a 5% CO2 humidified incubator for 24 hours preincubation.
Following preincubation, medium was removed and replaced with 1.5 ml/well of growth medium containing 1 nM parathyroid hormone (PTH) 1-34 (Sigma) to stimulate bone resorption. For evaluation of the ability of calcitonin mimetics to inhibit PTH induced bone resorption, mimetic compounds in DMSO were added to the growth medium at concentrations ranging from 1-400 μg/ml (final assay concentration of DMSO less than or equal to 1%). In each experiment human calcitonin (0.02-2 nM, 0.2-2 nM preferred) was added to PTH treated bones as a positive control. […] All control wells contained a final assay concentration of DMSO equal to that present in calcitonin mimetic treated wells.
Five bones were included in each sample group. Bones were incubated for 72 hours following PTH addition to allow resorption of bone to occur. Observations were made of the general appearance, healthiness and number of cells. that migrate from the calvaria during the incubation as a possible indication of cell toxicity. Calvaria to be examined histologically were transferred to glass scintillation vials containing 10 ml of 10% neutral buffered formalin. […]

Test [3] has as its system osteoclasts in mouse calvariae. The test is described as follows: Calvaria histology (osteoclast number and size, toxicity). Conditions: for Histology (bone destruction by PTH, Oc size and #): mouse calvariae treated with PTH. The source says: To confirm the findings in the calvarial bone resorption assay employing calcium release from culture mouse calvariae, selected bones were fixed in 10% neutral buffered formalin and demineralized in 5% formic acid with 5% formalin. The bones were dehydrated through an ascending series of ethanol concentrations, infiltrated in glycol methacrylate, and embedded using a JB-4 embedding kit (PolySciences, Warrington, Pa.) (Liu, et al., J. Bone Mineral Res. 5:973-82, 1990). When necessary, an alternative embedding method (paraffin embedding) was used to speed up the embedding process. Cross sections of calvariae cut at 5 μm were obtained and stained for tartrate-resistant acid phosphatase (TRAP) activity and counterstained with methyl green and thionin for cell morphology (Liu, et al., ibid.). Osteoclasts were identified by TRAP stain, multinucleation, large cell size, and irregular cell shape. The number of osteoclasts were counted from endocranial and ectocranial bone surfaces and expressed as number/mm perimeter. The size of all the osteoclasts counted was also measured using a Bone Morphometry program (Liu, et al., ibid.; Bain, et al., J. Bone Miner. Res. 8:435-42, 1993). […] This PTH-induced increase was suppressed by treatment with human calcitonin.
Calcitonin mimetic compounds were evaluated in a similar fashion for their ability to suppress PTH-induced increases in osteoclast number and size (Table 2). Cell toxicity (or death) was also evaluated by the appearance of pyknotic nuclei in a small number of bone cells. With an increased level of toxicity, a further increase in the number of these pyknotic nuclei, detachment of cells from bone surfaces, and losses of cytoplasmic stain and cell boundaries were observed. The osteocytic space also appeared empty.

Turning to `C=CCNC(=O)[C@@H](Cc1ccc(F)cc1)NC(=O)Nc1cc(C(C)(C)C)ccc1C(C)(C)C` [628-033], the “Luciferase induction (% of maximum luciferase induction produced by CT, 100 nM)” value in test [1] (crude compound 6.25 μg/ml) was 14.71%; in test [1] (crude compound 12.5 μg/ml), 27.68%; in test [1] (crude compound 25 μg/ml), 31.63%; in test [1] (crude compound 50 μg/ml) it was 33.62%. Also, the “Release of PTH Induced Ca++ IC50” value in test [2] was found to be 30 µg/mL. The “Histology (bone destruction by PTH, Oc size and #)” value (shortened to “Histology”) in test [3] was “Decreases in bone”.
In the case of `C=CCNC(=O)[C@@H](Cc1ccc2ccccc2c1)NC(=O)Nc1cc(C(C)(C)C)ccc1C(C)(C)C` [628-035], the “Luciferase induction (% of maximum luciferase induction produced by CT, 100 nM)” value was determined as 34.84% in test [1] (crude compound 6.25 μg/ml), 43.25% in test [1] (crude compound 12.5 μg/ml), 46.43% in test [1] (crude compound 25 μg/ml) and 52.27% in test [1] (crude compound 50 μg/ml). The “Release of PTH Induced Ca++ IC50” value in test [2] turned out to be 23 µg/mL. In addition, the “Histology” value in test [3] is listed as “Decreases in bone”.
With `CC(C)(C)c1ccc(C(C)(C)C)c(NC(=O)N[C@H](Cc2ccc(Cl)cc2)C(=O)NCc2ccc3ccccc3c2)c1` [628-052], the “Luciferase induction (% of maximum luciferase induction produced by CT, 100 nM)” value in test [1] (crude compound 3.125 μg/ml) was found to be 9.57%; in test [1] (crude compound 6.25 μg/ml) it was 23.59%; in test [1] (crude compound 12.5 μg/ml), 36.63%; in test [1] (crude compound 25 μg/ml) it was 40.21%; in test [1] (crude compound 50 μg/ml), 38.27%.
The like results for `CC(C)(C)c1ccc(C(C)(C)C)c(NC(=O)N[C@H](Cc2ccc(F)cc2)C(=O)NCc2ccc3ccccc3c2)c1` [628-053] were, in that order, 3.29%, 11.89%, 32.31%, 41.8% and 40.14%.
The like results for `CC(C)(C)c1ccc(C(C)(C)C)c(NC(=O)N[C@H](Cc2ccc(I)cc2)C(=O)NCc2ccc3ccccc3c2)c1` [628-054] were, in that order, 10.73%, 27.05%, 42.54%, 47.47% and 54.86%.
Take `CC(C)(C)c1ccc(C(C)(C)C)c(NC(=O)N[C@H](Cc2ccc3ccccc3c2)C(=O)NCc2ccc3ccccc3c2)c1` [628-055]: the “Luciferase induction (% of maximum luciferase induction produced by CT, 100 nM)” value came out at 24.81% in test [1] (crude compound 6.25 μg/ml), 35.48% in test [1] (crude compound 12.5 μg/ml), 43.3% in test [1] (crude compound 25 μg/ml) and 48.69% in test [1] (crude compound 50 μg/ml). The “Release of PTH Induced Ca++ IC50” value in test [2] stood at 14 µg/mL. Further, in test [3], the “Histology” value is listed as “Decreases in bone”.
In the case of `CC(C)(C)c1ccc(C(C)(C)C)c(NC(=O)N[C@@H](C(=O)NCc2ccc3ccccc3c2)c2ccccc2)c1` [628-056], the “Luciferase induction (% of maximum luciferase induction produced by CT, 100 nM)” value in test [1] (crude compound 3.125 μg/ml) came out at 4.2%; in test [1] (crude compound 6.25 μg/ml) it was 14.7%; in test [1] (crude compound 12.5 μg/ml) it was 28.6%; in test [1] (crude compound 25 μg/ml) it was 35.6%; in test [1] (crude compound 50 μg/ml), 37.1%.
Consider `CC[C@H](C)[C@H](NC(=O)[C@H](C)NC(=O)[C@@H](NC(=O)[C@H](CCC(N)=O)NC(=O)[C@@H]1CCCN1C(=O)[C@H](Cc1ccccc1)NC(=O)[C@@H](NC(=O)[C@H](Cc1c[nH]cn1)NC(=O)[C@H](Cc1ccccc1)NC(=O)[C@H](CCCCN)NC(=O)[C@H](CC(N)=O)NC(=O)[C@H](Cc1ccccc1)NC(=O)[C@H](CC(=O)O)NC(=O)[C@H](CCC(N)=O)NC(=O)[C@@H](NC(=O)[C@H](Cc1ccc(O)cc1)NC(=O)[C@@H](NC(=O)CNC(=O)[C@H](CC(C)C)NC(=O)[C@H](CCSC)NC(=O)[C@@H]1CSSC[C@H](N)C(=O)NCC(=O)N[C@@H](CC(N)=O)C(=O)N[C@@H](CC(C)C)C(=O)N[C@@H](CO)C(=O)N[C@@H]([C@@H](C)O)C(=O)N1)[C@@H](C)O)[C@@H](C)O)[C@@H](C)O)[C@@H](C)O)C(=O)NCC(=O)N[C@H](C(=O)NCC(=O)N[C@@H](C)C(=O)N1CCC[C@H]1C(N)=O)C(C)C` [human calcitonin, reference compound], for which the “PTH-induced increase in number and size of osteoclasts” value in test [3] (mouse calvariae, PTH 1-34 treatment) is reported as “suppressed”.
